Assay results published in patent US20120322125A1, “CONTROL OF CONTAMINANT MICROORGANISMS IN FERMENTATION PROCESSES WITH SYNERGISTIC FORMULATIONS CONTAINING PEROXIDE COMPOUND AND QUATERNARY AMMONIUM COMPOUND” (E. I. DU PONT DE NEMOURS AND COMPANY, priority 2010, published 2012).

How the values were obtained:
[1] = test system: lactic acid bacteria (LAB) species (Lactobacillus brevis, Lactobacillus plantarum, Lactobacillus paracasei); assay: Viable count of lactic acid bacteria cocktail in treated molasses medium; format: cell-based; conditions: for Viable Population: LAB in molasses medium, 32° C.
Method: (§1) A fermentation broth was prepared by diluting 1 part molasses with 3 parts water as is commonly practiced in molasses-based fermentation processes. A cocktail of three lactic acid bacteria (LAB) species (Lactobacillus brevis, Lactobacillus plantarum, Lactobacillus paracasei) was concurrently prepared by growing an overnight culture of each bacteria in deMann-Rogosa-Sharpe (MRS) broth (available from Difco Laboratories, Inc., Sparks, Md.) at 32° C. in a shaking incubator, then combining the broth to make up a mixed culture. A separate overnight culture of Saccharomyces cerevisiae (inoculant yeast) was prepared by growing an overnight culture in Yeast Peptone Dextrose (YPD) broth (available from Difco Laboratories Inc., Sparks, Md.). A potion of the molasses medium was inoculated with the cocktail of LAB to result in approximately 1×10^6 colony forming units (CFU) per ml of medium. A separate portion was inoculated with the yeast to result in approximately 6×10^5 CFU/ml. Portions of the inoculated molasses medium were treated with hydrogen peroxide (HP), quaternary ammonium compound (didecyl dimethyl ammonium chloride) or combinations of the two as outlined below:
(§2) Treated samples were incubated at 32° C. in a shaking incubator, following which serial dilutions were made in phosphate buffered saline (PBS) before plating the dilutions on MRS agar and Potato Dextrose Agar (PDA) plates for viable count determination. The plates were incubated at 32° C. for 48 hrs.

[2] = test system: Saccharomyces cerevisiae (inoculant yeast); assay: Viable count of inoculant yeast in treated molasses medium; format: cell-based; conditions: for Viable Population: S. cerevisiae in molasses medium, 32° C.
Method: as §1, §2

SMILES	Viable Population ([1]; 75 ppm HP)	reduction of the viable LAB population ([1]; 100 ppm HP by itself)	Viable Population ([1]; 100 ppm HP)	reduction of the LAB population ([1]; 100 ppm QAC by itself)	Viable Population ([1]; 100 ppm QAC)	Viable Population ([1]; 150 ppm QAC)	Viable Population ([2]; 100 ppm QAC)	Viable Population ([2]; 150 ppm QAC)	effects on the viability of the inoculant yeast ([2]; similar concentrations of QAC and HP, alone or combined)
OO [HP, hydrogen peroxide]	4.5 × 10^5 CFU/ml	about 1 log CFU/ml	8.1 × 10^4 CFU/ml	–	–	–	–	–	–
CCCCCCCCCC[N+](C)(C)CCCCCCCCCC.[Cl-] [QAC, didecyl dimethyl ammonium chloride]	–	–	–	did not reduce	1.19 × 10^6 CFU/ml	1.16 × 10^6 CFU/ml	5.0 × 10^5 CFU/ml	3.5 × 10^5 CFU/ml	did not have any significant effects
